Reference: patent US10774071B2, “PD-1/PD-L1 inhibitors” (Gilead Sciences, Inc., priority 2018, dated 2020)
Where two headings read alike, the source gives them in different places.

Experiments:
PD-1/PD-L1 = PD-1/PD-L1 (Homo sapiens (Human), UniProt Q9NZQ7); assay: PD-1/PD-L1 biochemical protein-protein interaction assay (ALPHA); assay type: binding; conditions: read-out: IC50 PD-L1-PD1
Method: Compounds were tested in biochemical protein-protein interaction assays to determine if they can specifically block the interaction between the extracellular domains of PD-1/PD-L1 or CTLA/CD80. Binding of the protein pairs is measured using a bead based Amplified Luminescent Proximity Homogeneous Assay (ALPHA) platform. […] Final protein concentration in the assays were 0.3 nM (His tagged PD-L1), 2.5 nM (biotinylated Fc-PD-1), 1 nM (His tagged CTLA4) and 1 nM (biotinylated CD80).

PD-L1 = PD-L1 (Homo sapiens (Human), UniProt Q9NZQ7); assay: PD-L1/PD-L1 dimerization biochemical protein-protein interaction assay (ALPHA); assay type: binding; conditions: read-out: AC50 PDL1 Dimer 1 nM
[1] = 0.3 nM His tagged PD-L1, 2.5 nM biotinylated Fc-PD-1, Table 3B
[2] = 0.5 nM His tagged PD-L1 and 0.5 nM FLAG tagged PD-L1, Table 4B
[3] = 0.3 nM His tagged PD-L1, 2.5 nM biotinylated Fc-PD-1, readings of 0.064 nM are equal to or less than 0.064 nM
[4] = 0.5 nM His tagged PD-L1 and 0.5 nM FLAG tagged PD-L1, Table 4A

PD-L1, sequence (Q9NZQ7 19-238): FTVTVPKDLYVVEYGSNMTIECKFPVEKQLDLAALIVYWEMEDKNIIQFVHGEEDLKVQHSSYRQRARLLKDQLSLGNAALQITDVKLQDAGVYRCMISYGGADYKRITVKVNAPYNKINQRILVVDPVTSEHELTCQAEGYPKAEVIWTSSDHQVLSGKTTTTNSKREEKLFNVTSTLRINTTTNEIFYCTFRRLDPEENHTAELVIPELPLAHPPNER
PD-L1, sequence (Q9NZQ7 19-238): as above
PD-1/PD-L1, sequence (Q9NZQ7 19-238): as above

SMILES | IC50 (PD-1/PD-L1; [1]) [nM] | AC50 (PD-L1; [2]) [nM] | IC50 (PD-1/PD-L1; [3]) [nM] | AC50 (PD-L1; [4]) [nM]
COc1cc(O[C@H]2CCc3c(-c4cccc(-c5ccc(CNC[C@@H]6CCC(=O)N6)c(OC)n5)c4Cl)cccc32)c(C(F)(F)F)cc1CN1CCC[C@@]1(C)C(=O)O [B-223] | 0.064 | 18 |  | 
CNC(=O)CCNCc1ccc(-c2cccc(-c3cccc4c3CC[C@@H]4Oc3nc(OC)c(CNCCC(=O)NC)cc3Cl)c2Cl)nc1OC [B-89] | 0.387 | 85 |  | 
COc1nc(-c2cccc(-c3cccc4c3CC[C@@H]4Nc3nc(OC)c(CN4CC(C(=O)O)C4)cc3C(F)(F)F)c2Cl)ccc1CN[C@H]1C[C@](C)(O)C1 [A-57] |  |  | ≤ 0.064 | 29.6
COc1nc(-c2cccc(-c3cccc4c3CC[C@@H]4Nc3nc(OC)c(CN4C5CCC4(C(=O)O)CC5)cc3C(F)(F)F)c2Cl)ccc1CNC[C@@H]1CCC(=O)N1 [A-61] |  |  | ≤ 0.064 | 10.6
COc1nc(-c2cccc(-c3cccc4c3CC[C@@H]4Oc3nc(OC)c(CNC45CC(C(=O)O)(C4)C5)cc3Cl)c2Cl)ccc1CNC[C@@H]1CCC(=O)N1 [B-20] | 0.064 | 33.7 |  | 
COc1cc(N[C@H]2CCc3c(-c4cccc(-c5ccc(CNC[C@@H]6CCC(=O)N6)c(OC)n5)c4Cl)cccc32)c(C(F)(F)F)cc1CN1CC2(C(=O)O)CCC1CC2 [A-12] |  |  | ≤ 0.064 | 26.4
COc1nc(-c2cccc(-c3cccc4c3CC[C@@H]4Oc3nc(OC)c(CN4CCCCC(C(=O)O)C4)cc3Cl)c2Cl)ccc1CNC[C@@H]1CCC(=O)N1 (some centres unmarked) [B-176] | 0.064 | 52.6 |  | 
COc1nc(-c2cccc(-c3cccc4c3CC[C@@H]4Nc3nc(OC)c(CN[C@@H](C)C(=O)O)cc3C(F)(F)F)c2Cl)ccc1CN[C@H]1C[C@](C)(O)C1 [A-66] |  |  | ≤ 0.064 | 19.6
COc1nc(-c2cccc(-c3cccc4c3CC[C@@H]4Oc3nc(OC)c(CN4CC5(C(=O)O)CCC4CC5)cc3Cl)c2Cl)ccc1CNC1CC2CCC1N2C(C)=O (some centres unmarked) [B-23] | 0.064 | 62.8 |  | 
CC[C@H](NCc1nc(C(F)(F)F)c(N[C@H]2CCc3c(-c4cccc(-c5ccc(CNC[C@@H]6CCC(=O)N6)c(OC)n5)c4Cl)cccc32)nc1OC)C(=O)O [A-104] |  |  | ≤ 0.064 | 16.6
CNC(=O)C1CCN(Cc2cc(Cl)c(O[C@H]3CCc4c(-c5cccc(-c6ccc(CN7CC(C)(O)C7)c(OC)n6)c5Cl)cccc43)nc2OC)C1 (some centres unmarked) [B-86] | 0.235 | 109 |  | 
COc1nc(-c2cccc(-c3cccc4c3CC[C@@H]4Oc3nc(OC4CC4)c(CNC4(C(=O)O)CC4)cc3Cl)c2Cl)ccc1CNC[C@@H]1CCC(=O)N1 [B-201] | 0.064 | 24.4 |  | 
COc1nc(-c2cccc(-c3cccc4c3CC[C@@H]4Oc3nc(OC)c(CN4CC(C(=O)O)C4)nc3Cl)c2Cl)ccc1CNC[C@@H]1CCC(=O)N1 [B-152] | 0.064 | 12.7 |  | 
COc1cc(N[C@H]2CCc3c(-c4cccc(-c5ccc(CNC[C@@H]6CCC(=O)N6)c(OC)n5)c4Cl)cccc32)c(C(F)(F)F)nc1CN1CC[C@@H](C(=O)O)C1 [A-43] |  |  | ≤ 0.064 | 9.89
COc1nc(-c2cccc(-c3cccc4c3CC[C@@H]4Oc3nc(OC)c(CN4CC[C@@H](C(=O)O)C4)cc3C(F)(F)F)c2Cl)ccc1CNC[C@@H]1CCC(=O)N1 [B-62] | 0.064 | 9.3 |  | 
COc1nc(-c2cccc(-c3cccc4c3CC[C@@H]4Oc3nc(OC)c(CN[C@]4(C(=O)O)C[C@H](F)C4)cc3C(F)(F)F)c2Cl)ccc1CNC[C@@H]1CCC(=O)N1 [B-230] | 0.064 | 27.5 |  | 
COc1nc(-c2cccc(-c3cccc4c3CC[C@@H]4Nc3nc(OC)c(CN4CCCC[C@@]4(C)C(=O)O)cc3C(F)(F)F)c2Cl)ccc1CN1CC(C)(O)C1 [A-52] |  |  | ≤ 0.064 | 15.3
COc1nc(-c2cccc(-c3cccc4c3CC[C@@H]4Oc3nc(OC)c(CN4C[C@@H]5C[C@]5(C(=O)O)C4)cc3C(F)(F)F)c2Cl)ccc1CNC[C@@H]1CCC(=O)N1 [B-199] | 0.064 | 17.5 |  | 
COc1nc(-c2cccc(-c3cccc4c3CC[C@@H]4Oc3nc(OC)c(CNCC(=O)O)cc3C(F)(F)F)c2Cl)ccc1CN[C@]1(C)C[C@@](C)(O)C1 [B-205] | 0.064 | 7.55 |  | 

SMILES | IC50 (PD-1/PD-L1; [1]) [nM] | AC50 (PD-L1; [2]) [nM] | IC50 (PD-1/PD-L1; [3]) [nM] | AC50 (PD-L1; [4]) [nM]
COc1nc(O[C@H]2CCc3c(-c4cccc(-c5cc(C)c(CN6CC(C)(O)C6)c(OC)n5)c4Cl)cccc32)c(Cl)cc1CN1CC[C@H](C(=O)O)C1 [B-60] | 0.064 | 55.6 |  | 
COc1nc(-c2cccc(-c3cccc4c3CC[C@@H]4Oc3nc(OC)c(CN4CCC(C)(C(=O)O)CC4)cc3Cl)c2Cl)ccc1CNC[C@@H]1CCC(=O)N1 [B-178] | 0.064 | 21.5 |  | 
COc1nc(-c2cccc(-c3cccc4c3CC[C@@H]4Oc3nc(OC)c(CN4CC[C@@H]5C[C@@]54C(=O)O)cc3C(F)(F)F)c2Cl)ccc1CN[C@H]1C[C@](C)(O)C1 [B-3] | 0.066 | 120 |  | 
COc1nc(-c2cccc(-c3cccc4c3CC[C@@H]4Nc3nc(OC)c(CN[C@@H](C)C(=O)O)nc3C(F)(F)F)c2Cl)ccc1CN1CC(O)C1 [A-72] |  |  | ≤ 0.064 | 13.4
COc1nc(-c2cccc(-c3cccc4c3CC[C@@H]4Oc3nc(OC)c(CN4CCC[C@@H]4C(=O)O)cc3C(F)(F)F)c2Cl)ccc1CNC[C@@H]1CCC(=O)N1 [B-6] | 0.064 | 7.96 |  | 
COc1cc(N[C@H]2CCc3c(-c4cccc(-c5ccc(CNC[C@@H]6CCC(=O)N6)c(OC)n5)c4Cl)cccc32)c(C(F)(F)F)cc1CN1CC[C@@H](C(=O)O)C1 [A-11] |  |  | ≤ 0.064 | 34.8
COc1nc(O[C@H]2CCc3c(-c4cccc(-c5cnc(CNC[C@@H]6CCC(=O)N6)c(OC)n5)c4Cl)cccc32)c(Cl)cc1CNC1CC(NC(C)=O)C1 (some centres unmarked) [B-34] | 0.111 | 22.3 |  | 
COc1nc(O[C@H]2CCc3c(-c4cccc(-c5cc(C)c(CN6CC(C)(O)C6)c(OC)n5)c4Cl)cccc32)c(Cl)cc1CN1CC(C(=O)O)C1 [B-59] | 0.113 | 107 |  | 
COc1nc(-c2cccc(-c3cccc4c3CC[C@@H]4Oc3nc(OC)c(CN4CCN(C)C(C(=O)O)C4)cc3Cl)c2Cl)ccc1CNC[C@@H]1CCC(=O)N1 (some centres unmarked) [B-82] | 0.064 | 37.8 |  | 
COc1nc(-c2cccc(-c3cccc4c3CC[C@@H]4Oc3nc(OC)c(CN4CC5CCC4(C(=O)O)CC5)cc3C(F)(F)F)c2Cl)ccc1CN1CC2(CCC(=O)N2)C1 [B-226] | 0.064 | 5.33 |  | 
CNC(=O)CNCc1nc(C(F)(F)F)c(N[C@H]2CCc3c(-c4cccc(-c5ccc(CNC[C@@H]6CCC(=O)N6)c(OC)n5)c4Cl)cccc32)nc1OC [A-88] |  |  | 0.202 | 60.4
COc1nc(-c2cccc(-c3cccc4c3CC[C@@H]4Nc3nc(OC)c(CN4C[C@@H]5CC[C@H]4[C@@H]5C(=O)O)nc3C(F)(F)F)c2Cl)ccc1CNC[C@@H]1CCC(=O)N1 [A-80] |  |  | ≤ 0.064 | 19.9
COc1nc(O[C@H]2CCc3c(-c4cccc(-c5cc(C)c(CNC[C@@H]6CCC(=O)N6)c(OC)n5)c4Cl)cccc32)c(C)cc1CNC1(C(=O)O)CC1 [B-244] | 0.064 | 18 |  | 
COc1nc(-c2cccc(-c3cccc4c3CC[C@@H]4Oc3nc(OC)c(CN4CC[C@H](C)[C@H]4C(=O)O)cc3C(F)(F)F)c2Cl)ccc1CNC[C@@H]1CCC(=O)N1 [B-7] | 0.064 | 4.04 |  | 
COc1nc(-c2cccc(-c3cccc4c3CC[C@@H]4Nc3nc(OC)c(CN[C@@H](C)C(=O)O)nc3C(F)(F)F)c2Cl)ccc1CN1CC(C)(O)C1 [A-74] |  |  | ≤ 0.064 | 9.07
COc1nc(-c2cccc(-c3cccc4c3CC[C@@H]4Oc3nc(OC)c(CN4C[C@H]5C[C@]4(C(=O)O)[C@H]5C)cc3Cl)c2Cl)ccc1CNC[C@@H]1CCC(=O)N1 [B-180] | 0.064 | 12.5 |  | 
COc1cc(N[C@H]2CCc3c(-c4cccc(-c5ccc(CNC[C@@H]6CCC(=O)N6)c(OC)n5)c4Cl)cccc32)c(Cl)cc1CN1CC[C@@](C)(C(=O)O)C1 [A-14, (R)-1-(5-chloro-4-(((S)-4-(2-chloro-3-(6-methoxy-5-(((((S)-5-oxopyrrolidin-2-yl)methyl)amino)methyl)pyridin-2-yl)phenyl)-2,3-dihydro-1H-inden-1-yl)amino)-2-methoxybenzyl)-3-methylpyrrolidine-3-carboxylic acid] |  |  | ≤ 0.064 | 30.4
CNC(=O)C1CN(Cc2cc(Cl)c(O[C@H]3CCc4c(-c5cccc(-c6ccc(CNC[C@@H]7CCC(=O)N7)c(OC)n6)c5Cl)cccc43)nc2OC)C1 [B-101] | 0.201 | 64.8 |  | 
